# Test results taken from patent US6506876B1, “LTA4 hydrolase inhibitor pharmaceutical compositions and methods of use” (G.D. Searle & Co., priority 1994, dated 2003).
# Read-outs that look alike come from different tables or passages of the source.
# Tests used:
# [1] = tested on: LTB4 production in mouse blood (LTA4 hydrolase); experiment: Ex vivo LTB4 production by calcium ionophore stimulated mouse blood after oral dosing; format: in vivo
# Experimental: Ex Vivo LTB4 and Thromboxane Production by Calcium Ionophore Stimulated Mouse Blood for LTA4 Hydrolase Inhibitor Activity
# Leukotriene A4 hydrolase inhibitor compounds of the present invention were diluted to a predetermined concentration in phosphate buffered saline containing 2% DMSO and 1% Tween 80. The compounds were administered by oral gavage to adult male outbred mice weighing approximately 20-30 gm at a dose of 10 mg/kg body weight. (Compounds given at a dose of 50 mg/kg body weight are designtated in following Table by the symbol, *.) Sixty (60) minutes after administration of an LTA4 inhibitor compound of the invention, blood was collected (into heparin-containing tubes) from the retroorbital sinus. […] The mixture was incubated for 10 minutes at 37° C. in a humidified incubator. The reaction was terminated by centrifugation (833 g, 10 minutes at 4° C.). Supernatants were analyzed for LTB4 and thromboxane by commercially available enzyme-linked immunoassays (Caymen Chemical Co., Ann Arbor, Mich.] in accordance with the manufacturer's instructions. The percent inhibition was determined by comparison to animals treated identically except that the solution admininstered by oral gavage was devoid of inhibitor compound.
# [2] = target: T1, recombinant human LTA4 hydrolase (rhLTA4H) (Homo sapiens, UniProt P09960); experiment: Recombinant human LTA4 hydrolase assay for LTA4 hydrolase inhibitor activity; settings: Recombinant Human LTA4 Hydrolase Assay IC50 LTA4H
# T1 sequence (P09960 1-611): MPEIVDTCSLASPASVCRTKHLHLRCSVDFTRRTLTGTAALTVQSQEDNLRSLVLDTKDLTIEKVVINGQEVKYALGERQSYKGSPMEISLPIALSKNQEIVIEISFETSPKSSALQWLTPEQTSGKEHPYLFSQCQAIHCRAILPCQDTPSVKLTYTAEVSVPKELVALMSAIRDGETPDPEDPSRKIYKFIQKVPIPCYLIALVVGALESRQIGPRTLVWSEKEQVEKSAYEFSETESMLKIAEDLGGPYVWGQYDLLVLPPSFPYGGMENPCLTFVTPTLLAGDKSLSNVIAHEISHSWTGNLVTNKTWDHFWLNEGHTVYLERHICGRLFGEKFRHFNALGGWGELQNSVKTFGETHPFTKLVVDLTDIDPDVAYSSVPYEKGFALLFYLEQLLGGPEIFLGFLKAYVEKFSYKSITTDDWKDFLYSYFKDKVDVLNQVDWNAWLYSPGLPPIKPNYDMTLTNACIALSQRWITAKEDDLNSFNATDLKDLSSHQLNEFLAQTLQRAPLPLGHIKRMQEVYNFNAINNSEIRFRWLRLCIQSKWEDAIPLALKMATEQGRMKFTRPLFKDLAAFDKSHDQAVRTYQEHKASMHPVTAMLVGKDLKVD
# Experimental: One or more predetermined amounts of a compound of the invention were incubated in assay buffer (0.1 M potassium phosphate, 5 mg/ml fatty acid free BSA, 10% DMSO, pH 7.4) for 10 minutes at room temperature with 250 ng of recombinant hLTA4H to allow binding, if any, between the enzyme and inhibitor. The stock enzyme solution was 1 mg/ml LTA4 hydrolase, 50 mM Tris, pH 8.0, 150 mM NaCl, 2.5 mM beta-mercaptoethanol, 50% glycerol. […] Each reaction was carried out at room temperature for 10 minutes. The reaction was stopped by diluting 25 μl of the reaction mixture with 500 μl of the assay buffer without DMSO. LTB4 was quantified in the diluted sample by a commercially available enzyme-linked immunoassay [Caymen Chemical Co., Ann Arbor, Mich.] using the method recommended in the manufacturer's instructions and compared to the amount of LTB4 produced in a negative control (i.e., essentially identical conditions except without addition of an inhibitor compound). The IC50 was routinely calculated from the data produced.
# [3] = Mus musculus, po, 1 h, read-out: Murine Ex Vivo LTB4 Inhibition % I LTB4
# [4] = mouse, oral gavage, 1 hour after administration of 10 mg/kg; read-out: Murine Ex Vivo LTB4 Inhibition % I LTB4
# [5] = mouse, oral gavage, 1 hour after administration of 50 mg/kg (*); read-out: Murine Ex Vivo LTB4 Inhibition % I LTB4
# [6] = Mus musculus, po, 1 h; read-out: Murine Ex Vivo LTB4 Inhibition % I LTB4
Structure (SMILES),IC50 ([2]; recombinant hLTA4H) [nM],"inhibition in vivo at 10 mg/kg [1, 4] [%]",further results
"Fc1ccc(Oc2ccc(OCCN3CCCC3)cc2)cc1 [Example 48, 1-[2-[4-(4-fluorophenoxy)phenoxy]ethyl]pyrrolidine]",150,–,"inhibition in vivo at 10 mg/kg [1, 3]: 13%"
c1ccc2ncc(Cc3ccc(OCCN4CCCC4)cc3)cc2c1 [Example 132],84,83,–
c1csc(Cc2ccc(OCCN3CCCC3)cc2)c1 [Example 133],10,49,–
Oc1ccc(Cc2ccc(OCCN3CCCC3)cc2)cc1 [Example 137],30,38,–
c1ccc(Cc2ccc(OCCN3CCCC3)cc2)nc1 [Example 138],420,21,–
Fc1ccc(Cc2ccc(OCCN3CCCC3)cc2)cc1 [Example 139],110,9,–
Fc1cccc(Cc2ccc(OCCN3CCCC3)cc2)c1 [Example 142],37,32,–
NC(=O)C1CCN(CCOc2ccc(Cc3ccccc3)cn2)CC1 [Example 147],1060,94,–
Clc1ccccc1COc1ccc(OCCN2CCCC2)cc1 [Example 208],4000,13,–
FC(F)(F)c1cccc(COc2ccc(OCCN3CCCC3)cc2)c1 [Example 209],3000,0,–
Fc1cccc(COc2ccc(OCCN3CCCC3)cc2)c1 [Example 211],120,–,"inhibition in vivo at 50 mg/kg [1, 5]: 47%"
c1csc(COc2ccc(OCCN3CCCC3)cc2)c1 [Example 215],85,–,"inhibition in vivo at 50 mg/kg [1, 5]: 33%"
NC(=O)C1CCN(CCOc2ccc(Cc3cccs3)cc2)CC1 [Example 229],240,70,–
NC(=O)C1CCN(CCOc2ccc(Cc3ccsc3)cc2)CC1 [Example 230],390,53,–
NC(=O)C1CCN(CCOc2ccc(Cc3cccc(F)c3)cc2)CC1 [Example 233],370,98,–
c1ccc(Cc2ccc(OCCNC3CCCCC3)cc2)cc1 [Example 240],1070,33,–
c1ccc(Cc2ccc(OCCNC3CCCC3)cc2)cc1 [Example 241],600,33,–
OC1CCN(CCOc2ccc(Cc3ccccc3)cc2)CC1 [Example 247],100,70,–
O=C(NC1CCN(CCOc2ccc(Cc3ccccc3)cc2)CC1)c1cc2ccccc2o1 [Example 248],200,56,–

Structure (SMILES),IC50 ([2]; recombinant hLTA4H) [nM],"inhibition in vivo at 10 mg/kg [1, 4] [%]",further results
NC(=O)C1CCN(CCOc2ccc(Oc3ccccc3)cc2)CC1 [Example 252],160,94,–
NC(=O)C1CCCN(CCOc2ccc(Oc3ccccc3)cc2)C1 (stereo not drawn) [Example 253],910,73,–
CCOC(=O)C1CCN(CCOc2ccc(Oc3ccccc3)cc2)CC1 [Example 254],6000,87,–
O=C(OCc1ccccc1)C1CCCN1CCCOc1ccc(Cc2ccccc2)cc1 (stereo not drawn) [Example 258],1250,–,"inhibition in vivo at 50 mg/kg [1, 5]: 81%"
c1ccc(Cc2ccc(OCCCN3CCCC3)cc2)cc1 [Example 259],100,–,"inhibition in vivo at 50 mg/kg [1, 5]: 35%"
COC(=O)C1CN(CCCOc2ccc(Cc3ccccc3)cc2)CCC1=O (stereo not drawn) [Example 262],220,52,–
CC(C)(C)OC(=O)C1CCN(CCCOc2ccc(Cc3ccccc3)cc2)CC1 [Example 263],4500,60,–
O=C(CCNCCOc1ccc(Cc2ccccc2)cc1)OCc1ccccc1 [Example 266],6500,29,–
COC(=O)CCNCCCOc1ccc(Cc2ccccc2)cc1 [Example 267],170,–,"inhibition in vivo at 50 mg/kg [1, 5]: 100%"
CCOC(=O)C1CCCN(CCCOc2ccc(Cc3ccccc3)cc2)C1 (stereo not drawn) [Example 269],2770,50,–
O=C(CCNCCCCOc1ccc(Cc2ccccc2)cc1)OCc1ccccc1 [Example 273],610,100,–
c1ccc(Cc2ccc3c(c2)CC(CN2CCCC2)O3)cc1 (stereo not drawn) [Example 280],11,33,–
CCOC(=O)C1CCN(CC2Cc3cc(Cc4ccccc4)ccc3O2)CC1 (stereo not drawn) [Example 282],3700,57,–
NC(=O)C1CCN(CC2Cc3cc(Cc4ccccc4)cnc3O2)CC1 (stereo not drawn) [Example 288],700,0,–
NC(=O)C1CCN(CC2Cc3cc(Oc4ccccc4)ccc3O2)CC1 (stereo not drawn) [Example 290],450,94,–
CCOC(=O)C1CCN(CC2Cc3cc(Oc4ccccc4)ccc3O2)CC1 (stereo not drawn) [Example 291],8000,67,–
NC(=O)C1CCN(CC2CCc3cc(Cc4ccccc4)ccc3O2)CC1 (stereo not drawn) [Example 293],480,93,–
CC(=O)N1CCN(CC2Cc3cc(Cc4ccccc4)ccc3O2)CC1 (stereo not drawn) [Example 294],110,57,–
CNC(=O)C1CCN(CC2Cc3cc(Cc4ccccc4)ccc3O2)CC1 (stereo not drawn) [Example 295],440,80,–

Structure (SMILES),IC50 ([2]; recombinant hLTA4H) [nM],"inhibition in vivo at 10 mg/kg [1, 4] [%]",further results
CNC(=O)C1CCN(CC2Cc3cc(Oc4ccccc4)ccc3O2)CC1 (stereo not drawn) [Example 296],710,72,–
CCOC(=O)CC1CCN(CCOc2ccc(Cc3ccccc3)cc2)CC1 [Example 301],4500,81,–
COC(=O)C1(O)CCN(CCOc2ccc(Cc3ccccc3)cc2)CC1 [Example 305],10,42,–
CCOC(=O)C1CCN(CCOc2ccc(Cc3cccc(F)c3)cc2)CC1 [Example 309],2500,96,–
CCOC(=O)C1CCN(CCOc2ccc(Cc3cccs3)cc2)CC1 [Example 310],930,96,–
CC(=O)N[C@H]1C[C@@H](C)N(CCOc2ccc(Cc3ccccc3)cc2)[C@@H](C)C1 [Example 315],163,53,–
C[C@@H]1C[C@H](C(N)=O)C[C@H](C)N1CCOc1ccc(Cc2ccccc2)cc1 [Example 316],50,85,–
COC(=O)CCN(C)CCCOc1ccc(Cc2ccsc2)cc1 [Example 330],900,–,"inhibition in vivo at 10 mg/kg [1, 3]: 95%"
NC(=O)N1CCN(CC2Cc3cc(Cc4ccccc4)ccc3O2)CC1 (stereo not drawn) [Example 337],360,82,–
c1ccc(Cc2ccc(OCCn3cnc4ccccc43)cc2)cc1 [Example 339],2000,47,–
[O-][n+]1cccc2c1ncn2CCOc1ccc(Cc2ccccc2)cc1 [Example 363],17,62,–
[O-][n+]1ccc2c(c1)ncn2CCOc1ccc(Cc2ccccc2)cc1 [Example 365],–,–,"inhibition in vivo at 10 mg/kg [1, 3]: 72%; IC50 [2]: 82 nM"
NC(=O)C1CCN(CCOc2ccc(Cc3ccccc3)s2)CC1 [Example 369],42000,100,–
CCOC(=O)C1CCN(CCOc2ccc(Cc3ccccc3)s2)CC1 [Example 370],59000,–,"inhibition in vivo at 10 mg/kg [1, 6]: 96%"
COC(=O)CCN(C)CCCOc1ccc(Cc2ccccc2)s1 [Example 375],900,–,"inhibition in vivo at 10 mg/kg [1, 6]: 67%"
OCC1CCCN1CCOc1ccc(Cc2ccccc2)cc1 (stereo not drawn) [Example 385],140,32,–
OC1CCN(CCOc2ccc(Cc3ccccc3)cc2)C1 (stereo not drawn) [Example 386],32,–,"inhibition in vivo at 10 mg/kg [1, 3]: 51%"
CC1CCC(C)N1CCOc1ccc(Cc2ccccc2)cc1 (stereo not drawn) [Example 399],100,30,–
CC(CN1CCCCCC1)Oc1ccc(Cc2ccccc2)cc1 (stereo not drawn) [Example 404],1750,52,–
